Measured values from US20250302728A1, “FRAGRANCE COMPOSITIONS AND PRODUCTS CONVEYING A POSITIVE MOOD” (SYMRISE AG, priority 2022, published 2025).

Experiments:
Assay type in all cases: in vivo, human
[1] = test system: subject's mood; assay: Sensorial and emotional evaluation of fragrance raw materials and fragrance compositions (prosody, verbatim, GEW, IRT, EmoChar combined to one mood); settings: 30 subjects, card strip for 10 seconds; details in FIG. 1-9
Description: (§1) 1. Sensorial and Emotional Evaluation of Fragrance Raw Materials Each fragrance was evaluated by 30 subjects. At each appointment, the subject discovered fragrances in one sequence of four fragrances and two sequences of three fragrances separated by a 10-minute break.
(§2) During those appointments, the subjects smelt the fragrances in a random way.
(§3) For each fragrance, the subject discovered each fragrance on a card strip for 10 seconds. Between each product, a rest-period of 2 minutes was carried out during which the subject smelt their own body odour by smelling their wrist and the subject drank a little bit of water as well.
(§4) The evaluation is carried out in standardized lighting conditions and under a monitored temperature (temperature 21±1.5° C.).
The different recordings are carried in technical room during talking with the technicians. he following tests were performed for more than 100 different fragrance raw materials.
The following testing procedures were used to determine one mood out of five different testing strategies. All results of the single testing protocols as described in 1.1 to 1.5 were combined and one mood per fragrance raw material or fragrance composition was determined based on the single testing results.
Fragrance compositions were designed by combining the tested fragrance raw materials and the compositions were tested in 30 different subjects to evaluate the emotional impression conveyed by the fragrance composition as described above for the fragrance raw materials.

[2] = test system: subject's mood; assay: Actimood scoring (correlation of EmoChar and IRT values); settings: scale 0 (low impact) to 3 (high impact)
Description: as §1, §3
Emochar™ is a system of emotional characterization, scoring 7 main emotional dimensions from 0 to 10: • Stimulation: focus, attention, and awakening. • Relaxation: serenity, relaxation and appeasing. • Sensual: arousing, sexy and erotic. • Pleasure: liking, “gourmand” and satisfaction. • Tenderness: gentleness and softness. • Joy: excitement, fun and enthusiasm. • Self-esteem: confidence and assurance
Actimood scores are based on a correlation of EmoChar™ and IRT values. The scores are classified on a scale from 0 (low impact on subject's mood) to 3 (high impact on subject's mood).
Each score is obtained according to an algorithm, mixing verbal and non-verbal responses of volunteers to a specific product, or stimulus in a given context. The algorithm was developed from extensive field data, and in accordance with scientific literature and validated biobehavioral patterns associated to various emotional states.

[3] = test system: subject's mood; assay: Implicit response test (IRT); set-up: scale not given here
Description: as §1, §2, §3, §4
Implicit response tests (IRTs) are a family of tests and assess the subjects' immediate, “gut instinct” responses the fragrance raw materials.
The alleged underlying processes are based on how neurosciences describe the way our brain processes information. Indeed, our brain processes information through two systems: System 2, which is slow and processes conscious information, and System 1, which is fast and processes non-conscious information.
The IRT tests are performed at a computer, where the following words appear on the computer screen: • Energizing • Relaxing • Attractive • Sensual • Joyful • Protective • Confident • Fresh • Well-being
The subject has to click on the screen with the computer mouse to indicate their accordance or not of the word with the tested fragrance. In addition, the times to click the button are recorded.

[4] = ingredients of the fragrance composition conveying a fresh mood (Table 1)
[5] = ingredients of the fragrance composition conveying an attractive mood (Table 2)

Compound | mood conveyed by the fragrance raw material [1] | Actimood score ([2]; sensual mood (Table 8)) | Actimood score ([2]; well-being mood (Table 10)) | IRT Score [3, 4] | IRT Score [3, 5] | Actimood score ([2]; attractive mood (Table 11)) | Actimood score ([2]; fresh mood (Table 12)) | Actimood score ([2]; joyful mood (Table 6)) | Actimood score ([2]; protective mood (Table 5)) | Actimood score ([2]; energizing mood (Table 7)) | Actimood score ([2]; relaxing mood (Composition 2, Table 4)) | Actimood score ([2]; self-confident mood (Table 9))
COC1(C)CCC23CC1C(C)(C)C2CCC3C (stereo not shown) [CEDRAMBER, 8-methoxy-2,6,6,8-tetramethyl-tricyclo[5.3.1.01,5]undecane] | conveying a sensual mood | 3 | 0 | – | – | – | – | – | – | – | – | –
CC1(C)CCCC2(C)C1CCC1(C)OCCC12 (stereo not shown) [AMBROXIDE, 3a,6,6,9a-Tetramethyldodecahydronaphtho[2,1-b]furan] | conveying a self-confident mood | 2 | 3 | 1643 | 1921 | 3 | 3 | 3 | – | – | – | –
CCc1occc(=O)c1O [ETHYL MALTOL, 2-ethyl-3-hydroxy-pyran-4-one] | conveying an attractive mood | – | – | – | 3505 | 3 | – | 3 | – | – | – | –
C=CCOC(=O)CCC1CCCCC1 [ALLYL CYCLOHEXYL PROPIONATE, allyl 3-cyclohexylpropanoate] | conveying a joyful mood | – | – | – | – | – | – | 3 | – | – | – | –
CCOc1cc(C=O)ccc1O [ETHYL VANILLIN, 3-ethoxy-4-hydroxy-benzaldehyde] | conveying a well-being mood | – | – | – | 2786 | 3 | – | – | 1 | – | – | –
Oxacyclohexadecen-2-one [GLOBALIDE ®] | conveying a relaxing mood | – | 2 | – | 1815 | 3 | – | – | 2 | – | – | –
C=CC(C)(O)CCC=C(C)CC (mixture of isomers) [ETHYL LINALOOL, (6E)-3,7-dimethylnona-1,6-dien-3-ol] | – | – | – | 1682 | 565 | 2 | 3 | 2 | – | 1 | – | –
O=C1CCCCCCCCCCCCCCO1 [MACROLIDE ® SUPRA, Pentadecan-15-olide] | – | – | 2 | – | 1944 | 3 | – | – | 2 | – | 3 | –
CC1C(C)(C)C2=C(C(=O)CCC2)C1(C)C (stereo not shown) [CASHMERAN, 1,1,2,3,3,-pentamethyl-2,5,6,7-tetrahydroinden-4-one] | conveying a protective mood | – | 1 | – | 1469 | 3 | – | – | 2 | – | – | 2
